For 1 molecule, inhibition results are on record in patent US5382593A, “New 3-(hydroxybenzylidenyl)-indolin-2-ones” (Adir et Compagnie, priority 1992, dated 1995).

For test [1], the system named is cyclooxygenase of human granulocytes. Put plainly: Inhibition of PGE2 secretion (cyclooxygenase) by human granulocytes stimulated by calcium ionophore A23187. Type of test: cell-based. Particulars: concentration of 10^-5 M, A23187 5×10^-6 M, read-out: inhibition of the production of PGE2. From the text:
The aim of this study is to measure the inhibiting activity of the compounds of the invention on the secretion of prostaglandin E2 (PGE2), one of the principal prostanoids produced by the cyclooxygenase of human granulocytes stimulated by the calcium ionophore A23187.
Human venous blood from blood donors who have not taken medicaments for 2 weeks is drawn into polypropylene tubes containing 1 volume of anti-coagulant (2.73% citric acid, 4.48% sodium citrate, 2% glucose) per 10 volumes of blood.
In the hour following taking the samples, 6% dextran is added to the blood (0.3 cm^3 /cm^3 of blood). After incubation for 30 min. at 37° C., the plasma rich in white corpuscles is centrifuged at a speed of 100 g for 5 min. at 4° C. […]
After centrifugation at a speed of 420 g for 30 min. at 4° C., the sediment rich in granulocytes is resuspended in 5 cm^3 of phosphate buffer and centrifuged at a speed of 100 g for 5 min. at 4° C. Finally, the granulocytes are counted and the density is adjusted to 3×10^6 cells/cm^3 of phosphate buffer.
The cells (3×10^6 cells/cm^3) are preincubated at 37° C. for 15 min. in the absence or presence of the products to be tested at the desired concentration. […] The base level is measured using cells without either the products to be tested or A23187. […]
The quantity of PGE2 produced is measured by a radioimmunological assay (RIA). […]

Test [2] has as its system lipoxygenase, human polynuclear cells. In words: Inhibition of LTB4 production (lipoxygenase) by human polynuclear cells activated by calcium ionophore A 23187. To be noted: concentration of 10^-5 M. Type of test: cell-based. The procedure: The production of the principal prostanoid, resulting from lipoxygenase, produced by human polynuclear cells: leucotriene B4 (LTB4) is measured by a radioimmunological assay.

As usually defined, the inhibition is the share of the control response that was lost under treatment. As for `CC(C)(Sc1cc(C(C)(C)C)c(O)c(C(C)(C)C)c1)Sc1cc(C(C)(C)C)c(O)c(C(C)(C)C)c1` [probucol], the inhibition at 10 µM in test [1] and in test [2] was about 40% throughout.
